pEC50: −log10 of the molar value. Starred links: 1 amine or outer side, 2 acyl side, 3 side chain; linkers in the order of their positions; H or OH if unused. Non-standard residues stand in square brackets, D forms with d. Residues, ends and D or L forms follow the SMILES beside them. *: point of attachment. Palmitoyl = CCCCCCCCCCCCCCCC(=O)*; AzaAla = CN(N[*:1])C(=O)[*:2]
How the values were obtained:
GIPR = target: T1, GIPR (Homo sapiens, UniProt P48546); assay: cAMP luciferase reporter assay, GIPR agonism; type: cell-based
T1 sequence (P48546 22-466): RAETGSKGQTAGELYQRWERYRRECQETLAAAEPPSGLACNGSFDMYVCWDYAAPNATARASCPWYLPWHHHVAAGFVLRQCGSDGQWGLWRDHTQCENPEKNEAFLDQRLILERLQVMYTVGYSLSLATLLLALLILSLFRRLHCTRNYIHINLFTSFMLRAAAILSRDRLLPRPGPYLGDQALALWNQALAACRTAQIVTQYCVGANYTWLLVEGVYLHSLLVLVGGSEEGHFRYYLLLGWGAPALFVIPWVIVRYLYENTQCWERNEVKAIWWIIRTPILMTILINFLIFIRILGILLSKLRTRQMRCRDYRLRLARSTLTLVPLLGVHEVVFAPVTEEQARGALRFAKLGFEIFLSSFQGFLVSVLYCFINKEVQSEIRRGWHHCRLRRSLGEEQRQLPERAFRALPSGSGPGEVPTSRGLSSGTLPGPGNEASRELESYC

GLP-1R [1] = target: T2, GLP-1R (Homo sapiens, UniProt P43220)
T2 sequence (P43220 24-463): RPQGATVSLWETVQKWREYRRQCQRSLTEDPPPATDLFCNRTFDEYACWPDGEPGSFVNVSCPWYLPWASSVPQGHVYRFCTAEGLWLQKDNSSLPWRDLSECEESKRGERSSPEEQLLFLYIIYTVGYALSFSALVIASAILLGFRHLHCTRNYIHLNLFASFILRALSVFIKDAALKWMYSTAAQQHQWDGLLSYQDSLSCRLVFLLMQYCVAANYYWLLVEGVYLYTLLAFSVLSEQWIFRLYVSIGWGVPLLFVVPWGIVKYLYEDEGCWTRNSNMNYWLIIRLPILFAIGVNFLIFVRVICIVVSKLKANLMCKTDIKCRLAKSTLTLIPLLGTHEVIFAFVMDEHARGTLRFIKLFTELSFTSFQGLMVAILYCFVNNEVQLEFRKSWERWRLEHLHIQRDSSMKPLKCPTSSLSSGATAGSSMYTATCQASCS

GLP-1R [2] = target: T2, GLP-1R; assay: cAMP luciferase reporter assay, GLP-1R agonism; type: cell-based
GLP-1R [3] = target: T2, GLP-1R; settings: alanine scanning of GLP-1; cited from earlier work

Molecule | pEC50 (GIPR) | efficacy compared to native ligand (in words) (GIPR; GIPR, cAMP luciferase reporter assay) | Fold-Shift (↓) = (EC50 with DPP4)/(EC50 without DPP4) (GLP-1R [1]) | efficacy compared to native ligand (in words) (GLP-1R [2]) | adenylyl cyclase activity (in words) (GLP-1R [3])
CCCCCCCCCCCCCCCC(=O)NCCCC[C@H](NC(=O)[C@H](CO)NC(=O)[C@@H]1CCCN1C(=O)[C@@H]1CCCN1C(=O)[C@@H]1CCCN1C(=O)[C@H](C)NC(=O)CNC(=O)[C@H](CO)NC(=O)[C@H](CO)NC(=O)[C@@H]1CCCN1C(=O)CNC(=O)CNC(=O)[C@H](C)NC(=O)[C@H](CC(C)C)NC(=O)[C@H](CC(C)C)NC(=O)[C@H](Cc1c[nH]c2ccccc12)NC(=O)[C@H](CC(N)=O)NC(=O)[C@@H](NC(=O)[C@H](Cc1ccccc1)NC(=O)[C@H](CCC(=O)O)NC(=O)[C@H](C)NC(=O)[C@H](C)NC(=O)[C@H](C)NC(=O)[C@H](CCC(N)=O)NC(=O)[C@H](CCCCN)NC(=O)[C@H](CC(=O)O)NC(=O)[C@H](CC(C)C)NC(=O)[C@H](Cc1ccc(O)cc1)NC(=O)[C@@H](NC(=O)[C@H](CO)NC(=O)[C@H](Cc1ccc(O)cc1)NC(=O)[C@H](CC(=O)O)NC(=O)[C@H](CO)NC(=O)[C@@H](NC(=O)[C@H](Cc1ccccc1)NC(=O)[C@@H](NC(=O)CNC(=O)[C@H](CCC(=O)O)NC(=O)N(C)NC(=O)[C@@H](N)Cc1ccc(O)cc1)[C@@H](C)O)[C@@H](C)O)[C@@H](C)CC)C(C)C)C(N)=O [DA X2AzaA, X20A] (H-Y[AzaAla]EGTFTSDYSIYLDKQAAAEFVNWLLAGGPSSGAPPPSK(Palmitoyl)-NH2; N-terminus and C-terminus assumed) | 11.60 | equiefficacious | 1.0 | equiefficacious | –
Glu9Ala variant: literature alanine-scan variant of GLP-1 (HDEFERHAAGTFTSDVSSYLEGQAAKEFIAWLVKGRG; Glucagon-like peptide 1; UniProt P01275 92-128, looked up, variant E9A) | – | – | – | – | equivalent adenylyl cyclase activity

From article PMC13242721 (Angewandte Chemie (International ed. in English), 2024)
